ChEMBL document CHEMBL1201862, “PubChem BioAssay data set” (2004)
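Briefly, cells in 96-well plates were exposed to five compound concentrations for 48 h, and endpoints were estimated by linear interpolation. Here, GI50 denotes the concentration required for 50% inhibition of growth.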 The source made the active and inactive calls. Rule as the data show it: active = GI50 up to about 1.1 µM and inactive = higher.

Columns and labels:
Assay in all cases: NCI anticancer screen, dose series, 48 h
[1] = tested on: M14
[2] = tested on: HCC 2998
[3] = tested on: OVCAR-5
[4] = tested on: SR
[5] = tested on: TK-10
[6] = tested on: CAKI-1
[7] = tested on: SK-MEL-28
[8] = tested on: HOP-92
[9] = tested on: UO-31
[10] = tested on: Malme-3M
[11] = tested on: KM12
[12] = tested on: UACC-62
[13] = tested on: ACHN
[14] = tested on: SNB-75
[15] = tested on: U-251
[16] = tested on: SK-OV-3

Compound | GI50 [1] | GI50 [2] | GI50 [3] | GI50 [4] | GI50 [5] | GI50 [6] | GI50 [7] | GI50 [8] | GI50 [9] | GI50 [10] | GI50 [11] | GI50 [12] | GI50 [13] | GI50 [14] | GI50 [15] | GI50 [16]
COc1ccc2c(c1OC)C1=C(C2=O)c2cc3c(cc2CCN1)OCO3 | 37.3 µM (inactive) | 32.1 µM (inactive) | 23.7 µM (inactive) | 21 µM (inactive) | 54.1 µM (inactive) | 27.3 µM (inactive) | 42.7 µM (inactive) | 58.6 µM (inactive) | 48.3 µM (inactive) | 69.3 µM (inactive) | 20.4 µM (inactive) | 35.4 µM (inactive) | 3.42 µM (inactive) | 2.74 µM (inactive) |  | 
O=C(Cc1ccccc1)NN1C(=O)C(Cl)C1c1cccc([N+](=O)[O-])c1 (configuration not stated) | 46.7 µM (inactive) | > 100 µM (inactive) | > 79.1 µM (inactive) | 3.06 µM (inactive) | > 100 µM (inactive) | 38.5 µM (inactive) | > 92.9 µM (inactive) | 14 µM (inactive) | 31.7 µM (inactive) | > 78.5 µM (inactive) | > 90.4 µM (inactive) | 31.3 µM (inactive) | > 60.5 µM (inactive) | 0.729 µM (active) | 63.2 µM (inactive) | 90.6 µM (inactive)
Cc1ccc(S(=O)(=O)N/N=C(/CC(=O)c2c(C)[n+]([O-])c3ccccc3[n+]2[O-])C(=O)Nc2ccccc2C)cc1 | > 100 µM (inactive) | > 100 µM (inactive) | > 100 µM (inactive) | 35.5 µM (inactive) |  | > 100 µM (inactive) | > 100 µM (inactive) | 30.8 µM (inactive) | > 100 µM (inactive) | > 100 µM (inactive) | > 100 µM (inactive) | > 100 µM (inactive) | > 100 µM (inactive) | 31.2 µM (inactive) | > 100 µM (inactive) | > 100 µM (inactive)
N=C(N)NCCCC(Nc1c2ccccc2nc2ccccc12)C(=O)O (configuration not stated) | > 100 µM (inactive) | > 100 µM (inactive) | > 100 µM (inactive) | > 100 µM (inactive) | 53.7 µM (inactive) | > 100 µM (inactive) | > 100 µM (inactive) | > 100 µM (inactive) |  | > 100 µM (inactive) | > 100 µM (inactive) |  | > 100 µM (inactive) | > 100 µM (inactive) | > 100 µM (inactive) | 
COC1(OC)C2(Cl)C(Cl)=C(Cl)C1(Cl)C1C2C2CC1(C(=O)O)c1ccccc12 (configuration not stated) | 17.9 µM (inactive) | 22.9 µM (inactive) | > 10 µM (inactive) | 9.55 µM (inactive) | 29.1 µM (inactive) | 31.3 µM (inactive) | 19.4 µM (inactive) | 35.6 µM (inactive) | 21.9 µM (inactive) | 16 µM (inactive) |  | 16.5 µM (inactive) | 35.7 µM (inactive) |  | 18.5 µM (inactive) | 33.3 µM (inactive)
CC(O[Si](C)(C)C)C1C=CC(C)n2c(=O)n(-c3ccccc3)c(=O)n21 (configuration not stated) | > 100 µM (inactive) | > 100 µM (inactive) | > 100 µM (inactive) | > 100 µM (inactive) | > 100 µM (inactive) | > 100 µM (inactive) | > 100 µM (inactive) | < 0.01 µM (active) | > 100 µM (inactive) | > 100 µM (inactive) | > 100 µM (inactive) | > 100 µM (inactive) |  |  | > 100 µM (inactive) | > 100 µM (inactive)
Cc1cccc2c1NC(c1c(C)[nH]c3ccccc13)C2 (configuration not stated) | 78.7 µM (inactive) | > 100 µM (inactive) | > 100 µM (inactive) | > 100 µM (inactive) | > 100 µM (inactive) |  | > 100 µM (inactive) | 1.41 µM (inactive) | 64.4 µM (inactive) | > 100 µM (inactive) | 62.4 µM (inactive) | 78.2 µM (inactive) | 94 µM (inactive) | > 100 µM (inactive) | > 100 µM (inactive) | > 100 µM (inactive)
COc1ccc(C2=NN(C(=O)COc3ccc(Cl)cc3)C(O)(c3ccc(Cl)cc3)C2)cc1 (configuration not stated) | > 100 µM (inactive) | > 100 µM (inactive) | > 100 µM (inactive) |  | > 100 µM (inactive) | > 100 µM (inactive) | > 100 µM (inactive) | > 100 µM (inactive) | > 100 µM (inactive) | > 100 µM (inactive) | > 100 µM (inactive) | > 100 µM (inactive) | > 100 µM (inactive) | > 100 µM (inactive) | > 100 µM (inactive) | > 100 µM (inactive)
CCCCc1c2c(nc3c1CCc1cc4cc5c(nc4nc1-3)-c1nc3c(c(CCCC)c1CC5)CCCC3)CCCC2 | 53.1 µM (inactive) | 62.2 µM (inactive) |  | 47.4 µM (inactive) | 26.9 µM (inactive) |  | 69.5 µM (inactive) |  | 68.5 µM (inactive) | 38.6 µM (inactive) | 48.1 µM (inactive) | 19.6 µM (inactive) | 23.8 µM (inactive) | 49.9 µM (inactive) | 31.8 µM (inactive) | 36.5 µM (inactive)
CCCC12Cc3c(OC)ccc(OC)c3CC(Cc3c(OC)ccc(OC)c31)C2=O (configuration not stated) | > 100 µM (inactive) | > 100 µM (inactive) | > 100 µM (inactive) | 7.29 µM (inactive) | > 100 µM (inactive) | 9.64 µM (inactive) | > 100 µM (inactive) |  | > 100 µM (inactive) | 69.3 µM (inactive) | > 100 µM (inactive) |  | > 100 µM (inactive) | > 100 µM (inactive) | > 100 µM (inactive) | > 100 µM (inactive)
Cc1cc2c(=O)cc(-c3cccs3)oc2c(C(=O)O)c1C | > 100 µM (inactive) | > 100 µM (inactive) | > 100 µM (inactive) |  | > 100 µM (inactive) |  | > 100 µM (inactive) | > 100 µM (inactive) | > 100 µM (inactive) | > 100 µM (inactive) | 97.7 µM (inactive) | > 100 µM (inactive) | > 100 µM (inactive) | 1.56 µM (inactive) | > 100 µM (inactive) | > 100 µM (inactive)
C=C1c2[nH]c3c([N+](=O)[O-])c(OC)ccc3c2CCN1C(C)=O | > 100 µM (inactive) | > 100 µM (inactive) | > 100 µM (inactive) | > 100 µM (inactive) | > 100 µM (inactive) | 21.6 µM (inactive) | > 100 µM (inactive) |  | > 100 µM (inactive) |  | > 100 µM (inactive) | 61.9 µM (inactive) | > 100 µM (inactive) | 25 µM (inactive) | > 100 µM (inactive) | 
COc1ccc(/C=N/Nc2nc(-c3cc4oc(=O)n(C)c4cc3Cl)cs2)cc1OC | 78.5 µM (inactive) | 35.6 µM (inactive) | > 100 µM (inactive) | 77.4 µM (inactive) | 36.7 µM (inactive) | 79.3 µM (inactive) | > 100 µM (inactive) | 25.4 µM (inactive) | 13.6 µM (inactive) | 10.5 µM (inactive) | 18.8 µM (inactive) | 16.8 µM (inactive) | 7.66 µM (inactive) | 28.7 µM (inactive) | 15.7 µM (inactive) | > 100 µM (inactive)
CC(C)(C)C1=CC(=N/N=c2\scc(-c3ccccc3)n2-c2ccccc2)C=C(C(C)(C)C)C1=O | > 100 µM (inactive) | > 100 µM (inactive) | > 100 µM (inactive) | > 100 µM (inactive) | > 100 µM (inactive) | > 100 µM (inactive) | > 100 µM (inactive) | > 100 µM (inactive) | > 100 µM (inactive) | > 100 µM (inactive) | > 100 µM (inactive) | > 100 µM (inactive) | > 100 µM (inactive) | > 100 µM (inactive) | > 100 µM (inactive) | > 100 µM (inactive)
O=C(NNc1ccccc1)/C(=C/c1ccc2c(c1)OCO2)NC(=O)c1ccccc1 | > 100 µM (inactive) | > 100 µM (inactive) | > 100 µM (inactive) | 32.2 µM (inactive) | > 100 µM (inactive) | > 100 µM (inactive) | > 100 µM (inactive) | > 100 µM (inactive) | > 100 µM (inactive) | > 100 µM (inactive) | > 100 µM (inactive) | > 100 µM (inactive) | > 100 µM (inactive) | > 100 µM (inactive) | 98.4 µM (inactive) | > 100 µM (inactive)
CC(C)(C)C(=O)CC(=O)C(C)(C)C.CC(C)(C)C(=O)CC(=O)C(C)(C)C.[SiH4] | 2.18 µM (inactive) | 0.393 µM (active) | 2.21 µM (inactive) |  | 3.4 µM (inactive) | 0.579 µM (active) | 3.15 µM (inactive) | 0.692 µM (active) | 1.99 µM (inactive) | 6.12 µM (inactive) | 0.767 µM (active) | 2.99 µM (inactive) | 0.689 µM (active) | 0.719 µM (active) | 0.596 µM (active) | 1.87 µM (inactive)
COc1ccc(-c2cc(=O)c3c(OC)cccc3o2)c(OC)c1OC | > 100 µM (inactive) | > 100 µM (inactive) | > 100 µM (inactive) | 56.1 µM (inactive) | 82 µM (inactive) | > 100 µM (inactive) | > 100 µM (inactive) | 39.9 µM (inactive) |  | > 100 µM (inactive) | > 100 µM (inactive) | > 100 µM (inactive) | > 100 µM (inactive) | 19.8 µM (inactive) | > 100 µM (inactive) | > 100 µM (inactive)
O=C1Cc2c([nH]c3ccccc23)-c2ccccc2N1 [PAULLONE] | 42.5 µM (inactive) | 19.9 µM (inactive) | 26.8 µM (inactive) |  | > 100 µM (inactive) | 42.4 µM (inactive) | 48.8 µM (inactive) | 62.5 µM (inactive) | 27.2 µM (inactive) | 61.1 µM (inactive) | 18.3 µM (inactive) |  | 36.6 µM (inactive) | 19.8 µM (inactive) | 39.6 µM (inactive) | > 100 µM (inactive)
